Values quoted from earlier work as cited in publication PMC5599218 (Biomaterials, 2017).
Several values for one entry are separate records, joined by “and”; a condition that tells them apart may be missing. Identical values can stand only once.

Assays:
HIV-1 = conditions: ref [52]
[1] = oral daily dosing, 12h after the last dose; ref [52]
[2] = women using DPV vaginal rings for 7d; ref [54]
[3] = DPV vaginal films, after 6h exposure, estimated; ref [59]

Cc1cc(C#N)cc(C)c1Oc1nc(Nc2ccc(C#N)cc2)nc(N)c1Br [ETR, etravirine]
in vitro IC50 (HIV-1): ~ 2 ng/mL | ETR concentration in cervicovaginal fluid (CVF) [1]: 0.857 µg/mL

Cc1cc(C)c(Nc2ccnc(Nc3ccc(C#N)cc3)n2)c(C)c1 [DPV, Dapivirine]
Mean vaginal fluid concentrations of DPV [2]: 0.7 to 7.1 µg/mL | DPV provided to human cervical explant tissues [3]: 152–334 nM and 0.05–0.11 μg/mL
